Experimental data as given in patent US12521363B2, “Use of levodopa, carbidopa and entacapone for treating Parkinson's disease” (ORION CORPORATION, priority 2010, dated 2026).

Legend:
[1] = cited from earlier work
[2] = Repeated-dose levodopa/carbidopa pharmacokinetics with and without entacapone, human subjects (Example 1); type: in vivo; details: for levodopa pharmacokinetics, effect of increasing the carbidopa dose: repeated dosing 4 times a day, levodopa 100 mg, carbidopa 25/50/100 mg
Source text: The primary objective of the study was to evaluate the effects of different carbidopa dose levels on the pharmacokinetics (PKs) of levodopa with and without concomitant administration of entacapone. This was the first study to evaluate the effect of the combinations in a repeated dose setting in human subjects. Pharmacokinetics of levodopa in the presence of AADC and COMT inhibition with substances like carbidopa and entacapone is complex and difficult to model based on single dose PK data in humans, or animal models. However, it has been shown earlier that levodopa PK in healthy subjects is similar to that seen in PD patients and therefore the results of this study indicate how the levodopa PK will be in PD patients and how the levodopa PK will predict symptom control of PD. A total of 25 human subjects were enrolled into the study. The study subjects were randomly allocated to receive either 200 mg of entacapone or corresponding placebo in each treatment period. Entacapone, or a corresponding placebo, was administered concomitantly with 100 mg of levodopa and 25 mg of carbidopa at 3.5-hour intervals 4 times a day. In addition, the study subjects received in a randomised order in each treatment period one of the additional dose levels (0 mg, 25 mg, and 75 mg) of carbidopa. There were 3 treatment periods, one for each carbidopa dose level and for the same subjects with cross-over design so that each subject participated for the 3 periods. There were two groups with the same carbidopa doses, one group with and one group without concomitant entacapone administration. By this study design, the effect of entacapone on carbidopa dose escalation and subsequently to levodopa PK could be assessed in repeated dose setting in humans. Dose combinations were: • A: Entacapone 200 mg+levodopa 100 mg+carbidopa 25 mg • B: Entacapone 200 mg+levodopa 100 mg+carbidopa 50 mg • C: Entacapone 200 mg+levodopa 100 mg+carbidopa 100 mg • E: Levodopa 100 mg+carbidopa 25 mg • F: Levodopa 100 mg+carbidopa 50 mg • G: Levodopa 100 mg+carbidopa 100 mg After the first and last dose of the day, the whole levodopa and carbidopa plasma profiles were assessed and after the second and third dose only the minimum concentrations (just before the next dose at 3.5 and at 7.0 hours) were assessed.

[3] = Repeated-dose levodopa pharmacokinetics with increasing carbidopa, entacapone dose levels or tolcapone (Example 2); type: in vivo, human; details: repeated dosing, increased COMT-inhibition by higher entacapone dose or by tolcapone
Source text: The primary objective of the study was to evaluate the effects of different carbidopa dose levels on the pharmacokinetics (PKs) of levodopa with concomitant administration of different entacapone dose levels and with the moderately potent COMT inhibitor tolcapone.
The study subjects were randomly allocated to receive either increasing doses of entacapone or standard dose of tolcapone combined with increasing doses of carbidopa in each treatment period, a total of 12 different dose combinations. Entacapone was administered concomitantly with 100 mg of levodopa and 25 mg of carbidopa at 3.5-hour intervals 4 times a day and tolcapone 3 times a day. In addition, the study subjects received increasing dose levels of carbidopa.
There were three groups, one for each carbidopa dose level, and 4 treatment periods in each group, one for each entacapone dose level or for tolcapone and for the same subjects with cross-over design so that one subject participated for the 4 periods. By this study design the effect of entacapone and tolcapone on carbidopa dose escalation and subsequently to levodopa PK could be assessed in repeated dose setting in humans.
After each levodopa dose of the day, the levodopa plasma profile was assessed. The levodopa plasma concentrations after entacapone dose escalation and tolcapone standard dose and with increased carbidopa dose are given in FIG. 3.

[4] = increased carbidopa dose in the presence of a COMT inhibitor

Cc1c(Cl)c(C)[n+]([O-])c(Cl)c1-c1noc(-c2cc(O)c(O)c([N+](=O)[O-])c2)n1 [BIA 9-1067, 5-[3-(2,5-dichloro-4,6-dimethyl-1-oxypyridin-3-yl)-[1,2,4]oxadiazol-5-yl]-3-nitrobenzene-1,2-diol]
solubility [1]: poorly soluble

C[C@@](Cc1ccc(O)c(O)c1)(NN)C(=O)O [carbidopa, (−)-L-alpha-hydrazino-alpha-methyl-beta-(3,4-dihydroxybenzene)propionic acid]
accumulation of carbidopa concentrations in plasma ([2]; increased carbidopa dose, repeated dosing, towards the end of the dosing period): no accumulation

CCN(CC)C(=O)/C(C#N)=C/c1cc(O)c(O)c([N+](=O)[O-])c1 [entacapone, (E)-2-cyano-3-(3,4-dihydroxy-5-nitrophenyl)-N-diethyl-2 propenamide]
water solubility ([1]; water): poor solubility

N[C@@H](Cc1ccc(O)c(O)c1)C(=O)O [levodopa, (−)-L-alpha-amino-beta-(3,4-dihydroxybenzene)propanoic acid]
levodopa pharmacokinetics, effect of increasing the carbidopa dose [3]: significantly improve
AUC of levodopa [2, 4]: significantly increased
Cmin of levodopa [2, 4]: significantly increased
maximum concentrations of levodopa ([2]; increased carbidopa dose with COMT inhibitor): not clinically significantly increased
levodopa pharmacokinetics, effect of increasing the carbidopa dose ([2]; with entacapone 200 mg): significantly improve
levodopa pharmacokinetics, effect of increasing the carbidopa dose ([2]; without entacapone): did not have such an effect
